Assays:
[1] = tested on: AFD1 cells; assay: Attachment / plating efficiency on surface modified plate 4 without feeder cells or adlayer; type: cell-based; conditions: surface modified plate 4, MEF conditioned media
Protocol: The pluripotent stem cell line AFD1, was maintained in MEF conditioned media on Nunclon Delta™ plates treated with a 1:30 dilution of growth factor reduced MATRIGEL™ prior to study. Cells were dissociated from the surface for passage by 1 mg/ml dispase dissociation. AFD1 cells were then seeded onto untreated wells of surface modified plate 4 (6-well format). In parallel, AFD1 cells were also plated onto Nunclon Delta™ plates treated with 1:30 dilution of growth factor reduced MATRIGEL™ to provide as positive controls. In all treatments cells were maintained in MEF conditioned media. AFD1 cells seeded onto surface modified plate 4 did attach, however the attachment efficiency was much lower than on control plates (FIG. 11). […] Cells were thereafter maintained in a constant 10 μM Y-27632 concentration or a reduced 1 μM concentration of H1152-glycyl, respectively, with daily media change.

[2] = tested on: AFD1 cells; assay: qRT-PCR gene expression after two passages on surface modified plate 4 with Rho kinase inhibitor; type: cell-based; conditions: AFD1 passaged twice on modified surface 4 versus control plates
Protocol: Cells were passaged twice on surface modified plate 4 in the presence of either Y-27632 or H1152-glycyl and were tested for the expression of genes associated with pluripotency by qRT-PCR (FIG. 12). Expression of genes associated with and required for pluripotency (OCT4, NANOG, SOX2, TERT, and CRIPTO/TDGF) was maintained in AFD1 cells grown on modified surface 4 versus cells grown on control plates. […] This may have been due to increased expression of NANOG, which inhibits differentiation by suppressing expression of extra-embryonic ectoderm or trophoblast associated genes. Additionally, this decrease in expression of extra-embryonic ectoderm or trophoblast associated genes could occur through differential adhesion and proliferation of cells more pluripotent, and less differentiated, on modified surface 4 versus control plates.

C[C@@H](N)[C@H]1CC[C@H](C(=O)Nc2ccncc2)CC1 [Clone Y-27632] was tested, and the “plating efficiency of the cells” value ([1]; 10 μM for the first 24 hours in culture) was “significantly increased”, the “Expression of genes associated with and required for pluripotency (OCT4, NANOG, SOX2, TERT, and CRIPTO/TDGF)” value [2] was “maintained” and the “relative expression of AFP, HAND2, and GATA2 (spontaneous differentiation genes)” value [2] was “decreased significantly”.

In the case of Cc1cncc2cccc(S(=O)(=O)N3CCCN(C(=O)CN)C[C@@H]3C)c12.Cl.Cl [Clone H1152-glycyl, (S)-(+)-4-Glycyl-2-methyl-1-[(4-methyl-5-isoquinolinyl)sulfonyl]hexahydro-1H-1,4-diazepine dihydrochloride], the “plating efficiency of the cells” value ([1]; 3 μM for the first 24 hours in culture) is reported as “significantly increased”, the “Expression of genes associated with and required for pluripotency (OCT4, NANOG, SOX2, TERT, and CRIPTO/TDGF)” value [2] is reported as “maintained” and the “relative expression of AFP, HAND2, and GATA2 (spontaneous differentiation genes)” value [2] is reported as “decreased significantly”.

Source: patent US20110104805A1, “Pluripotent Stem Cells” (CENTOCOR ORTHO BIOTECH INC., priority 2009, published 2011)
